One data set deals with T1, MSUT2 ZF (Homo sapiens, UniProt Q6PJT7).
T1 construct: Targeted construct consisted of the c-terminal end (dark blue and amino acids 601-736) of MSUT2; made in house; host or cells: E. coli BL21 (DE3)
T1 sequence (Q6PJT7 601-736): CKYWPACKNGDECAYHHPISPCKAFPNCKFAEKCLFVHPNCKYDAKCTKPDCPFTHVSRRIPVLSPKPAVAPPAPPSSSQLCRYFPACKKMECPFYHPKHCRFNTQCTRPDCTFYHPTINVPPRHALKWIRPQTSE
The experiment in a line: Fluorescence polarization assay of FAM-poly(A) RNA:MSUT2 ZF binding. The protocol:
Fluorescence Polarization Assay. […] 2 μL of compound was transferred for a final concentration of 10 μM. […] Fluorescence polarization was calculated by first subtracting background from a buffer-only control well and then using the equation
Results and Discussion. A high-throughput fluorescence polarization assay for inhibition of poly(A):MSUT2 RNA interaction. […] In order to screen potential inhibitors of MSUT2 RBP and RNA by FP, fluorescent FAM (fluorescein amidite)-labeled poly(A)15 RNA (FAM-RNA) and recombinant MSUT2 ZF (zinc finger) protein expressing constructs were generated (FIG. 7a). […] Inhibition of the interaction results in unbound FAM-RNA tumbling at a relatively rapid rate and emitting non-polarized light (FIG. 7b).
To determine the concentrations of both MSUT2 ZF protein and FAM-RNA probe useful in the methods described herein, a two dimensional titration of protein and RNA concentrations in 96-well format was performed. […] Next, the binding constant between MSUT2 ZF and FAM-RNA was determined by holding FAM-RNA constant at 10 nM while increasing MSUT2 ZF concentration.
(§1) Identification and validation of MSUT2 inhibitory compounds from NIHCC library. […] IC50 of each of the previous 8 compounds was determined for PABPN1 using fluorescence polarization (FIG. 11), and a specificity ratio determined (Table 3). An Alpha Screen (AS) assay was developed as an orthogonal screen. Briefly, in this screen, biotinylated RNA binds streptavidin-coated donor beads, while GST-MSUT2 ZF binds glutathione-coated acceptor beads. When donor beads and acceptor beads are brought within close proximity of one another, laser excitation leads to fluorophore emission of the acceptor bead via excited singlet oxygen activating chemiluminescers in the acceptor beads. […] Toxicity of these compounds in a HEK cell model was determined using a standard Promega Cell Titer Glo assay.
(§2) Fluorescence Polarization Assay. […] of stock compound was transferred yielding 10 μM final concentration. […] Fluorescence polarization was calculated by first subtracting background from a buffer-only control well and then using the equation
On the technique in general: Fluorescence polarisation rises when a labelled molecule tumbles more slowly, as on binding a larger partner.

Another data set has as its target T2, PABPN1 (Homo sapiens, UniProt Q86U42).
T2 construct: made in house; host or cells: E. coli BL21 (DE3)
T2 sequence (Q86U42 1-306): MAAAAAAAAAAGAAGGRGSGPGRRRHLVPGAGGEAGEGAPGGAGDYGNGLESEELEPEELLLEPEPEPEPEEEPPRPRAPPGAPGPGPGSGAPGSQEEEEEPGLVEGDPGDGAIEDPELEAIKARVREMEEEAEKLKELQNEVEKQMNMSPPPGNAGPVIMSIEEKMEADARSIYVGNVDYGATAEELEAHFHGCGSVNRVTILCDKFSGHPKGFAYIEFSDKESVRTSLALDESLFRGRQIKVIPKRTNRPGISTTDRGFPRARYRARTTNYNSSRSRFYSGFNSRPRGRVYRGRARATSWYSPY
The experiment in a line: PABPN1 fluorescence polarization counter screen. It counts as binding. The procedure:
A drug repurposing strategy: screening of the NIH Clinical Collection compound library. […] The plan to find suitable lead compounds for drug repurposing began with a screen of the NIH Clinical Collection (NIHCC) library. The NIHCC consists of a diverse array of 700 compounds with historical pharmacological use and well-studied safety profiles. […] An orthogonal poly(A):MSUT2 binding assay allowed the ruling out of assay interference while selectivity against MSUT2 over PABPN1 was determined by a parallel FP assay with PABPN1 as the RBP. […] Thus, the goal was to eliminate compounds interfering with both PABN1 and MSUT2 and focus on compounds truly specific for poly(A):MSUT2 binding.
as §1, §2

The conditions of data set [1]: in vivo; cited from earlier work.
For a further data set, the system named is poly(A). To be noted: cited from earlier work.
The target in a further data set is T3, GST-MSUT2 (Homo sapiens, UniProt Q6PJT7).
T3 construct: Targeted construct consisted of the c-terminal end (dark blue and amino acids 601-736) of MSUT2; made in house; host or cells: E. coli BL21 (DE3)
T3 sequence (Q6PJT7 601-736): T1 sequence (Q6PJT7 601-736)
Description: Alpha Screen assay of biotinylated poly(A) RNA:GST-MSUT2 binding. As to conditions: orthogonal dose-response validation. The protocol: Alpha Screen Assay. Samples were set up in 384 well Perkin Elmer white opaque-bottom plates (PE06). A total reaction volume of […] was plated in 384 format using a CyBio Well Vario (6 μL of donor beads (10 μg/mL), 3 μL biotinylated RNA (250 nM), 3 μL GST-MSUT2 protein (250 nM) per well). 50 nL of compounds were transferred to wells via CyBio Vario equipped with Pin Tool. This mixture was incubated at room temperature for 30 minutes away from light. Next 3 μL of acceptor beads (1.25 μg/mL) was added. Plates were incubated at room temperature away from light for 60 minutes and subsequently read on a Perkin Elmer EnVision multimode microplate reader equipped with stackers using a standard 384-well Alpha Assay software protocol.
Results. Alpha Screen design and underlying principle. Alpha Screen technology relies on donor beads, coated with a hydrogel excitable by 680 nm, brought within close proximity to an acceptor bead leading to light emission and detection. In this assay, streptavidin coated donor beads tightly bind to biotinylated-poly(A) RNA while the glutathione-coated acceptor bead binds to GST-tagged MSUT2 protein. […] When this interaction is blocked by an inhibitor, the proximity threshold for donor and acceptor beads is not met, singlet oxygen transference cannot occur, and light is not emitted by the acceptor bead (FIG. 1a).
Identification and validation of MSUT2 inhibitory compounds from NIHCC library. The single-point primary screen was conducted in duplicate and utilized the FP assay conditions determined herein (e.g., 125 nM MSUT2 RNABP and 10 nM FAM-RNA probe) with 10 μM library compounds added in a 96-well format. […] Compound specificity was empirically tested by counter screening against PABPN1, a regulator of the length of mRNA poly(A) tails (Apponi, L. H. et al. Hum Mol Genet 19, 1058-1065, (2010); and Benoit, B. et al. Dev Cell 9, 511-522, (2005)). IC50 of each of the previous 8 compounds was determined for PABPN1 using fluorescence polarization (FIG. 11), and a specificity ratio determined (Table 3). An Alpha Screen (AS) assay was developed as an orthogonal screen. Briefly, in this screen, biotinylated RNA binds streptavidin-coated donor beads, while GST-MSUT2 ZF binds glutathione-coated acceptor beads. […] Toxicity of these compounds in a HEK cell model was determined using a standard Promega Cell Titer Glo assay.
Alpha Screen Assay. […] The plate was then incubated again at room temperature away from light for 60 minutes and subsequently read on a Perkin Elmer EnSight multimode microplate reader using a standard 96-well Alpha Assay protocol.

Data set [2] has as its target 3′,5′-cyclic phosphodiesterase. As to conditions: read-out: Ki (nM) for Known Target; cited from earlier work.
Another data set relates to elderly patients. To be noted: 10 year study of 20,215 elderly patients; cited from earlier work.
Data set [3] has as its system rat model of chronic cerebral hypoperfusion. To be noted: cited from earlier work.
The target in the next data set is T4, MSUT2 (Homo sapiens, UniProt Q6PJT7).
T4 sequence (Q6PJT7 1-736): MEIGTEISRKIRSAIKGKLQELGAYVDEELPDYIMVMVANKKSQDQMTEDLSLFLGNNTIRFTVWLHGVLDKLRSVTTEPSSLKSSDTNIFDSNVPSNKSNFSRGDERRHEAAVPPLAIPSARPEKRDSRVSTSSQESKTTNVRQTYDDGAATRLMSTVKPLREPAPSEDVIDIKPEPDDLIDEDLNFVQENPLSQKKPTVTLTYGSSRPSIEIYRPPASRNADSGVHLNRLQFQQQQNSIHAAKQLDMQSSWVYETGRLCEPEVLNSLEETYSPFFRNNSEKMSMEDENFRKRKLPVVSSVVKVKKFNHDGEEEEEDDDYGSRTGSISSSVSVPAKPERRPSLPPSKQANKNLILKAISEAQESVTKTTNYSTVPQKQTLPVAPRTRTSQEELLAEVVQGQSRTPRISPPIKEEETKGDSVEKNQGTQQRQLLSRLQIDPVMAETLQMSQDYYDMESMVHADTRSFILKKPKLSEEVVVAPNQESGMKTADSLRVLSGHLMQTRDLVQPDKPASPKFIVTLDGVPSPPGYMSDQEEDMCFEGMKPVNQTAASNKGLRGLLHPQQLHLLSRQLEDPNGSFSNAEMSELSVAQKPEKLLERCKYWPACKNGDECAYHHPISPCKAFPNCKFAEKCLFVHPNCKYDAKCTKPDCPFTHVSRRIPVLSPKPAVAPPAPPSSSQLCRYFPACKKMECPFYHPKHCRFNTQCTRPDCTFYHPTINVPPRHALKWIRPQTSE
As to conditions: read-out: Kd of MSUT2 for poly(A); cited from earlier work.

Description for HEK-293 cells: Cell culture and cytotoxicity screen. […] Cell viability was assessed as using Promega Cell Titer Glo (Promega G7570) per manufacturer protocol. Briefly, HEK-293 cells were grown to 70% confluence in a 96 well plate were treated with indicated concentrations of compounds and incubated for 72 hours at 37° C. Plates were read for luminescence on Perkin Elmer Enspire Alpha.
Cell viability was assessed. Briefly, HEK-293 cells grown to 70% confluence in a 96 well dish were treated with varying concentrations of compound (final concentration of 2% DMSO) and incubated for 72 hours. Next, Promega Cell Titer Glo assay was used to assess viability per manufacturer instructions (Promega G7570).

Consider `O=S(=O)(O)c1cc(N=C=S)ccc1C=Cc1ccc(N=C=S)cc1S(=O)(=O)O` [4,4-diisothiocyanostilbene-2,2′-sulfonic acid], for which the “toxicity (effect on cell viability)” value with HEK-293 cells was “relatively non-toxic at the doses tested”.
Broadly, the Ki is a measure of affinity in units of concentration, obtained from inhibition or displacement. As for `CC(C)/N=c1\cc2n(-c3ccc(Cl)cc3)c3ccccc3nc-2cc1Nc1ccc(Cl)cc1` [Clofazimine], the inhibition constant (Ki) at MSUT2 ZF (calculated by Cheng Prusof equation Ki=(IC50)/[(L/Kd)+1], FP dose response, read-out: Ki (nm) for MSUT2) is 978 nM. The IC50 at MSUT2 ZF (read-out: IC50MSUT2) was 990 nM; at PABPN1 (fluorescence polarization counter screen, unit inferred, read-out: IC50PABPN1) it was 50600 nM. Besides, the PABPN1/MSUT2 specificity ratio at PABPN1 (ratio of FP IC50s) amounted to 51.07. The “crossing of the blood brain barrier” value in data set [1] was “unable to cross the blood brain barrier”. Besides, in the data set on poly(A), the “interaction with poly(A)” value is listed as “little interaction”. On GST-MSUT2, the “inhibition activity by Alpha Screen (AS)” value is on record as “dose-dependent inhibition activity”.
As to `OCCN(CCO)c1nc(N2CCCCC2)c2nc(N(CCO)CCO)nc(N3CCCCC3)c2n1` [Dipyridamole], the “Ki (nm) for MSUT2” value at MSUT2 ZF (calculated by Cheng Prusof equation Ki=(IC50)/[(L/Kd)+1], FP dose response) was “failed DR”. Besides, the Ki in data set [2] was 1000 nM.
Turning to `CNCC[C@H](Oc1cccc2ccccc12)c1cccs1` [Duloxetine], at PABPN1 (fluorescence polarization counter screen, unit not given), the IC50PABPN1 result was “None”. Besides, the risk of dementia result in the data set on elderly patients is recorded as “associated with reduced risk of dementia”. In addition, the “neuronal loss in the hippocampus” value in data set [3] is “attenuated neuronal loss in the hippocampus”. The “inhibition activity by Alpha Screen (AS)” value at GST-MSUT2 is “dose-dependent inhibition activity”.
What is called Kd is the constant that tells how readily two partners part at equilibrium. In the case of “poly(A): poly(A) RNA, natural ligand of MSUT2 (AAAAAAAAAAAAAAA; RNA, backbone not given here)”, in the data set with MSUT2, the Kd was 60 ± 15 nM.

The record behind these values is patent US20210386709A1, “COMPOSITIONS AND METHODS FOR SUPPRESSING MSUT2” (United States Government As Represented By The Department …, priority 2020, published 2021).
